Measured values: US20210267978A1, “NANOPARTICLE FORMULATIONS OF IKE AND METHODS OF USE THEREOF” (The Trustees of Columbia University in the City of New York, priority 2018, published 2021)
pIC50: −log10 of the molar value. Read-outs that look alike come from different tables or passages of the source.

Columns and labels:
[1] = Pharmacokinetic analysis in NCG mice bearing SUDHL6 xenografts (plasma and tumor, LC-MS); assay type: in vivo; conditions: SUDHL6-xenograft NCG mice; for AUC(0-t) / Cmax / Tmax / half-life / concentration at 24 h: mouse; for AUC(0-t) / Cmax / Tmax / half-life / concentration at 24 h / Tlast: single dose 50 mg/kg IP; for concentration at 24 h: read-out: Clast
Protocol: IKE was dissolved in 5% DMSO/95% HBSS at pH 4 to create a 5 mg/mL solution or 3 mg/mL solution. 5% DMSO/95% HBSS at pH 4 was used as vehicle 1. IKE PEG-PLGA nanoparticles and unfunctionalized PEG-PLGA nanoparticles (without IKE) (vehicle 2) prepared with a NanoAssemblr were dialyzed with deionized water overnight, and the water was changed at least twice. Dialyzed IKE-PEG-PLGA nanoparticles and unfunctionalized PEG-PLGA nanoparticles were concentrated by Amicon Ultra-15 Centrifugal Filter Units to create a solution with 80 mg/mL PEG-PLGA nanoparticles. All above solutions were sterilized by filtering through a 0.2 μm syringe filter.
NCG mice 6-weeks of age were injected with 10 million SUDHL-6 cells subcutaneously. Visible tumors appeared after 2 weeks. Tumor size was measured by electronic caliper every 2 days and calculated using the formula: 0.5×length×width^2. After another 2 weeks, mice were randomly separated into group of 3 mice per cage with roughly tumor size (1200 mm^3). Mice were dosed at 50 mg/kg IKE, 22 mg/kg IKE, 22 mg/kg IKE PEG-PLGA nanoparticles (equal to 600 mg/kg PEG-PLGA) using IP at one time and samples were collected at 0, 1, 2, 3, 4, 6, and 24 h with three mice per time point. Mice were dosed with Vehicle 1 and Vehicle 2 (600 mg/kg PEG-PLGA) by IP and samples were collected at 24 h. Mice were euthanized using a CO2 gas chamber before xenograft dissection and cardio puncture. Plasma samples were collected and analyzed as described above. Tumors were dissected and divided into 6 segments, frozen on dry ice, and stored at −80° C. Before IKE extraction, tumor tissue samples were thawed at room temperature and weighed. A 2.5-fold ratio of volume of phosphate-buffered saline (PBS) (mL/g) was added to the sample and homogenized using Bead Ruptor 4 at speed 4 for 30 sec. The homogenization step was repeated until the samples were homogenized well (final weight/volume was 0.4 g/mL). 100 μL of homogenized tissue (equal to 40 mg) was added to a new microfuge tube, 900 μL of acetonitrile was added. The samples were mixed for at least 5 minutes by rotating on a shaker and were sonicated for at least 30 sec prior to centrifugation for 10 min at 4,000×g and 4° C. The supernatant was removed and dried on the GeneVac overnight on the HPLC setting. After drying, the samples were resuspended in 100 μL of methanol and analyzed on the LC-MS with each sample analyzed twice. Technical replicates were averaged. The concentration of IKE in the sample was determined by comparison against a standard curve of IKE in the range of 25 to 2,500 ng/mL. Pharmacodynamic analysis of ferroptosis biomarkers is described in the RT-qPCR, glutathione, immunofluorescence, and lipidomics sections below. Pharmacokinetics parameters of IKE were assessed using Prism fitted with Lognormal of one phase exponential decay.

[2] = tested on: SUDHL6 xenograft tumor tissue; experiment: TBARS measurement in mouse tumor tissue from efficacy study; assay type: in vivo, NCG mice
Protocol: NCG mice, 6-weeks old, were injected with 10 million SUDHLO-6 cells subcutaneously. The mice were treated after the tumor size reached 100 mm^3. Mice were separated randomly into treatment groups and dosed with 23 mg/kg IKE, 40 mg/kg IKE, 23 mg/kg IKE PEG-PLGA nanoparticles (equal to 700 mg/kg PEG-PLGA), vehicle 1 (based on volume), and vehicle 2 (700 mg/kg PEG-PLGA) once daily by IP for 14 days. Tumor volume was measured daily with electronic caliper and calculated using the formula: 0.5×length×width^2. 3 h after the final dosage, mice were euthanized with CO2 and tumor tissue was dissected, weighed, divided into 4-6 segments, frozen, and stored at −80° C. Tumor volume change was analyzed in Prism using one-way ANOVA. Tumor tissues were analyzed as described in the RT-qPCR, immunofluorescence, TBARS, and lipidomics sections below.
10-25 mg tumor tissue was placed into a 1.5 mL Eppendorf microfuge tube, and the sample was placed on dry ice until use. 20 μL/mg ice cold RIPA buffer with cocktail protease inhibitor (Roche) was added. The tumor tissue was homogenized at speed 5 for 30 sec using Bead Ruptor 4. The sample was centrifuged at 4° C. at 1,600×g for 10 min. The sample was kept on ice and the supernatant used for analysis. […] TBARS was measured using a TBARS Assay Kit (Cayman 700870) following the manufacture's protocol.

[3] = tested on: SUDHL6 cells; experiment: Reduced glutathione measurement in cell culture (Fluorometric-Green); assay type: cell-based; conditions: Homo sapiens, SU-DHL-6, 24 hours, average of three experiments, read-out: IC50 of GSH depletion
Protocol: 2.4 million cells were incubated with DMSO, IKE, or β-mercaptoethanol (β-Me) at a density of 0.2 million cells/mL for 24 h. Cells were collected and washed with cold PBS once. Cell number was counted by Vi-Cell. Cells were resuspended in ice cold RIPA buffer (Thermo Fisher Scientific, 89900) with 100 μL/one million cells. Samples were centrifuged for 15 min at 4° C. at 17,000×g. The resulting supernatant was deproteinized using a trichloroacetic acid and sodium bicarbonate solution and kept on ice. The sample was diluted with assay buffer provided in GSH/GSSG Ratio Detection Assay Kit (Abcam, ab13881) ten-fold. Reduced glutathione (GSH) levels were determined using Fluorometric-Green provided in the kit following the manufacture's protocol. 384-well (Corning) low volume black flat bottom polystyrene non-treated microplates 1230F99 were used in this experiment.

[4] = tested on: SUDHL6 xenograft tumor tissue; experiment: Reduced glutathione measurement in mouse tumor tissue after one IKE dose; assay type: in vivo, NCG mice; conditions: single dose IKE 50 mg/kg, starting at 4 hours
[5] = tested on: some cell lines; conditions: cited from earlier work

highest plasma concentration ([1]; single dose 50 mg/kg i.p.): 5.2 µg/mL
highest tumor accumulation ([1]; single dose 50 mg/kg i.p.): 2.5 µg/mL
AUC(0-t) ([1]; plasma): 10900 ng·h/mL
Cmax ([1]; plasma): 5180 ng/mL
Tmax ([1]; plasma): 1.35 h
half-life ([1]; plasma): 1.83 h
concentration at 24 h ([1]; plasma): 30 ng/mL
AUC(0-t) ([1]; tumor tissue): 9860 ng·h/mL
Cmax ([1]; tumor tissue): 2520 ng/mL
Tmax ([1]; tumor tissue): 3.3 h
half-life ([1]; tumor tissue): 3.5 h
concentration at 24 h ([1]; tumor tissue): 283 ng/mL
Tlast ([1]; plasma): 24 h
Tlast ([1]; tumor tissue): 24 h
pIC50 [3]: 7.47
SMILES: CC(C)Oc1ccc(C(=O)Cn2ccnc2)cc1-n1c(CN2CCN(C(=O)COc3ccc(Cl)cc3)CC2)nc2ccccc2c1=O [IKE, Imidazole ketone erastin]
MDA increase (TBARS assay, MDA-TBA adducts' fluorescence) ([2]; 23 mg/kg daily for 14 days): 1.4 fold
MDA increase (TBARS assay, MDA-TBA adducts' fluorescence) ([2]; 40 mg/kg daily for 14 days): 1.8 fold
GSH depletion in tumor tissue [4]: over 50%
potency improvement compared with erastin [5]: > 100 ×
